Measured values from patent US20240300905A1, “Quinazoline Compounds and Uses” (Prosetta Biosciences, Inc., priority 2023, published 2024).
Where two headings read alike, the source gives them in different places.

What was measured:
Hennes-20 cells = experiment: Hennes-20 oncology screen (low vs high plating density, alamar Blue); type: cell-based
Description: All compounds mentioned as active were tested in Hennes. Select hits from the Hennes screen were sent for additional anti-cancer testing.
To screen compounds for oncology activity Hennes-20 cells were plated at low (500 cells/well) versus high (15,000 cells/well) densities and treated with DMSO (vehicle) or dose-titration of compounds. The rationale for this screen is that an intrinsically toxic compound should kill cells regardless of density, including in Hennes-20 cells. However, a compound that selectively triggers the arrest of proliferation will inhibit cell growth when plated at a low density will appear cytotoxic due to inhibition of cell growth when plated at a low density but will appear non-toxic to cells plated at a high density where the cells are approaching confluence and the readout detected by a cell viability assay is already close to the maximum.
To conduct the Hennes-20 screen, two 96 well plates were seeded with Hennes 20 cells in parallel where one was plated at a density of 500 cells/well and the other was plated at a density of 15,000 cells/well. 90 uL of minimum essential media was added to each well and plates were placed in a 37 degrees Celsius incubator for 24 hours. The next day, 10 ul of media containing dilutions of compound in DMSO were added to each plate. Six wells on each plate received 10 ul of media containing only DMSO. Each well was gently mixed 5 times with a 100 ul pipette. Plates were incubated at 37 degrees Celsius for 72 hours then 10 uL of alamar Blue was added to each well. Wells were mixed 5 times then incubated at 37 degrees Celsius for […]. Plates were then read at 530/590.
The rationale for the screen is as follows: Hennes-20 cells lack endogenous apoptosis. Cells plated at low density will proliferate and approach confluence in 72 hrs. A drug that arrests proliferation may have its proliferation blocking effect masked by the triggering of endogenous apoptosis. However, in the Hennes line, lacking endogenous apoptosis, such an arrest is manifest as a dose-dependent maintenance at low cell density. Since the high-density cells are plated close to confluence, the difference between Alamar Blue cell survival readings after 72 hrs reflects the ability of the drug to block proliferation in the low density-plated cells. In the high density-plated cells any diminution of Alamar Blue readout vs vehicle control is due to intrinsic toxicity, not proliferation arrest, since cells were already at confluence. Thus, a compound that appears toxic (low Alamar Blue readings after 72 hrs) on the low-density plate, but which appears non-toxic (high Alamar Blue readings after 72 hrs) on the high-density plate, must be arresting proliferation, since intrinsic compound toxicity should be observed at both low and high cell densities, not selectively on the low-density plate.

plasmodium = experiment: Malaria screen (SYBR green fluorescence, plasmodium parasitemia culture); type: cell-based; conditions: 0.5% plasmodium parasitemia culture, 48 hours
Description: Compound was added to a 0.5% plasmodium parasitemia culture for 48 hours, then treated with SYBR green (a dye with marked fluorescence enhancement upon contact with plasmodium DNA) and the fluorescence was measured in drug treated versus untreated cells to determine inhibitory effects (Smilkstein, et al., “Simple and inexpensive fluorescence-based technique for high-throughput antimalarial drug screening,” Antimicrob Agents Chemother, 2004 May; 48(5):1803-6. doi: 10.1128/AAC.48.5.1803-1806.2004. PMID: 15105138: PMCID: PMC400546).

[1] = 72 h, Hennes-20 cells, 72 hours compound incubation, alamar Blue, read-out: EC50
[2] = Hennes-20 cells, 72 hours compound incubation, alamar Blue, read-out: EC50

CCCCNc1ncnc2cc(N3CCN(c4ccc5c(NCCc6ccccn6)ncnc5c4)CC3)ccc12 [Compound 69]
EC50 (Hennes-20 cells; [1]): 500 nM

CCCCNc1ncnc2cc(N3CCN(c4ccc5c(NCCCC)ncnc5c4)C(C)C3)ccc12 (stereo not drawn) [Compound 53]
EC50 (Hennes-20 cells; [1]): 500 nM

CCN(CCN(C)c1ccc2c(NCCC(C)C)ncnc2c1)c1ccc2c(NCCC(C)C)ncnc2c1 [Compound 96]
EC50 (Hennes-20 cells; [1]): < 2500 nM

CC(C)CCn1ccc2cc(N3CCN(c4ccc5c(ccn5CCC(C)C)c4)CC3)ccc21 [Compound 39]
EC50 (plasmodium): 3 µM

CC(C)CCN(C)c1ncnc2cc(N3CCN(c4ccc5c(NCCc6ccncc6)ncnc5c4)CC3)ccc12 [Compound 61]
EC50 (Hennes-20 cells; [1]): 2500 nM

CC(C)CCNc1ncnc2cc(N3CC(C)N(c4ccc5c(NCCC(C)C)ncnc5c4)CC3C)ccc12 (stereo not drawn) [Compound 54]
EC50 (Hennes-20 cells; [1]): 2500 nM

CC(C)CNc1ncnc2cc(N3CCN(c4ccc5c(NCCC6CCNCC6)ncnc5c4)CC3)ccc12 [Compound 63]
EC50 (Hennes-20 cells; [1]): > 12500 nM

CCCCNc1ncnc2cc(N3CCN(c4ccc5c(N6CCC(C)(C)CC6)ncnc5c4)CC3)ccc12 [Compound 70]
EC50 (Hennes-20 cells; [1]): 500 nM

CCCCNc1ncnc2cc(N3CCN(c4ccc5c(NCCC(C)C)ncnc5c4)CC3)ccc12 [Compound 22]
EC50 (Hennes-20 cells; [1]): < 500 nM

CC(C)CCNc1ncnc2cc(N3CCN(c4ccc5c(NCCC6CCCC6)ncnc5c4)CC3)ccc12 [Compound 80]
EC50 (Hennes-20 cells; [1]): 500 nM

CCCCNc1ncnc2cc(N(CC)CCN(CC)c3ccc4c(NCCC(C)C)ncnc4c3)ccc12 [Compound 87]
EC50 (Hennes-20 cells; [1]): 2500 nM

CCCCNc1ncnc2cc(N3CCN(c4ccc5c(NCCc6cccnc6)ncnc5c4)CC3)ccc12 [Compound 72]
EC50 (Hennes-20 cells; [1]): 2500 nM

CC(C)CCNc1cc(N2CCN(c3ccc4c(NCC(C)(C)C)ncnc4c3)CC2C)cc2ncncc12 (stereo not drawn) [Compound 66]
EC50 (Hennes-20 cells; [1]): 2500 nM

CC(C)(C)CNc1ncnc2cc(N3CCN(c4ccc5c(NCCC6CCNCC6)ncnc5c4)CC3)ccc12 [Compound 59]
EC50 (Hennes-20 cells; [1]): > 12500 nM

CC(C)CCN(C)c1ncnc2cc(N3CCN(c4ccc5c(NCCc6ccccc6)ncnc5c4)CC3)ccc12 [Compound 60]
EC50 (Hennes-20 cells; [1]): 2500 nM

CC(C)CC(=O)Nc1ncnc2cc(N3CCN(c4ccc5c(NC(=O)CC(C)C)ncnc5c4)CC3)ccc12 [Compound 43]
EC50 (plasmodium): > 10 µM

CC(C)CCNc1ncnc2cc(N3CCN(c4ccc5c(N(C)CC(C)C)ncnc5c4)CC3)ccc12 [Compound 23]
EC50 (Hennes-20 cells; [2]): < 2500 nM

CCN(CCN(CC)c1ccc2c(NCC(C)(C)C)ncnc2c1)c1ccc2c(NCCC(C)C)ncnc2c1 [Compound 86]
EC50 (Hennes-20 cells; [1]): < 2500 nM

CN1CCC(Nc2ncnc3cc(N4CCN(c5ccc6c(NC7CCN(C)CC7)ncnc6c5)CC4)ccc23)CC1 [Compound 38]
EC50 (plasmodium): 1.4 µM

CCCCNc1ncnc2cc(N(CC)CCN(C)c3ccc4c(NCCC(C)C)ncnc4c3)ccc12 [Compound 92]
EC50 (Hennes-20 cells; [1]): 2500 nM

CCCCNc1ncnc2cc(N(C)CCN(CC)c3ccc4c(NCCC(C)C)ncnc4c3)ccc12 [Compound 95]
EC50 (Hennes-20 cells; [1]): < 2500 nM

CC(C)CCNc1ncnc2cc(N3CCN(c4ccc5c(NCCc6cccnc6)ncnc5c4)CC3)ccc12 [Compound 83]
EC50 (Hennes-20 cells; [1]): < 2500 nM

CC(C)CCNc1ncnc2cc(N3CCN(c4ccc5c(NCCc6ccncc6)ncnc5c4)CC3)ccc12 [Compound 85]
EC50 (Hennes-20 cells; [1]): < 12500 nM

CC(C)(C)CNc1ncnc2cc(N3CCN(c4ccc5c(NCCc6cccnc6)ncnc5c4)CC3)ccc12 [Compound 76]
EC50 (Hennes-20 cells; [1]): 2500 nM

CC(C)CCNc1ncnc2cc(N3CCN(c4ccc5c(NCCc6ccccn6)ncnc5c4)CC3)ccc12 [Compound 84]
EC50 (Hennes-20 cells; [1]): 500 nM

COc1ccc(CNc2ncnc3cc(N4CCN(c5ccc6c(NCc7ccc(OC)cc7)ncnc6c5)CC4)ccc23)cc1 [Compound 20]
EC50 (plasmodium): 0.028 µM

CCCCNc1ncnc2cc(N3CCN(c4ccc5c(NCCC(C)C)ncnc5c4)C(C)C3C)ccc12 (stereo not drawn) [Compound 52]
EC50 (Hennes-20 cells; [1]): 2500 nM

CC(C)CCNc1ncnc2cc(N3CCN(c4ccc5ccn(CCC(C)C)c5c4)CC3)ccc12 [Compound 34]
EC50 (plasmodium): 0.2 µM

CCCCNc1ncnc2cc(N3CCN(c4ccc5c(NCCc6ccccc6)ncnc5c4)CC3)ccc12 [Compound 56]
EC50 (Hennes-20 cells; [1]): 12500 nM

CC(C)(C)CNc1ncnc2cc(N3CCN(c4ccc5c(NCCc6ccccn6)ncnc5c4)CC3)ccc12 [Compound 68]
EC50 (Hennes-20 cells; [1]): 500 nM

CC(C)CCNc1ncnc2cc(N3CCN(c4ccc5c(NCCCN(C)C)ncnc5c4)CC3)ccc12 [Compound 31]
EC50 (Hennes-20 cells; [1]): < 12500 nM

CCCCNc1ncnc2cc(N3CCN(c4ccc5c(NCCC6CCNCC6)ncnc5c4)CC3)ccc12 [Compound 57]
EC50 (Hennes-20 cells; [1]): > 12500 nM

CCCCNc1ncnc2cc(N(C)CCN(C)c3ccc4c(NCCCC)ncnc4c3)ccc12 [Compound 89]
EC50 (Hennes-20 cells; [1]): 500 nM

CN1CCN(CCNc2ncnc3cc(N4CCN(c5ccc6c(NCC(C)(C)C)ncnc6c5)CC4)ccc23)CC1 [Compound 75]
EC50 (Hennes-20 cells; [1]): > 2500 nM

CC(C)CCNc1ncnc2cc(N(C)CCCN(C)c3ccc4c(NCCC(C)C)ncnc4c3)ccc12 [Compound 99]
EC50 (Hennes-20 cells; [1]): < 12500 nM

CC(C)CCNc1ncnc2cc(N3CCN(c4ccc5c(N(C)CC(C)C)ncnc5c4)CC3)ccc12 [Compound 7]
EC50 (Hennes-20 cells; [2]): < 500 nM

CCCCNc1ncnc2cc(N3CCN(c4ccc5c(NCCN6CCN(C)CC6)ncnc5c4)CC3)ccc12 [Compound 71]
EC50 (Hennes-20 cells; [1]): > 2500 nM

CCCCNc1ncnc2cc(N(C)CCCN(C)c3ccc4c(NCCC(C)C)ncnc4c3)ccc12 [Compound 98]
EC50 (Hennes-20 cells; [1]): < 2500 nM

CC(C)CCNc1ncnc2cc(N(C)CCN(C)c3ccc4c(NCC(C)(C)C)ncnc4c3)ccc12 [Compound 90]
EC50 (Hennes-20 cells; [1]): 2500 nM

CC(C)CCN(C)c1ncnc2cc(N3CCN(c4ccc5c(N(C)CCC(C)C)ncnc5c4)CC3)ccc12 [Compound 26]
EC50 (plasmodium): 0.068 µM

CCCCNc1ncnc2cc(N(C)CCN(C)c3ccc4c(NCCC(C)C)ncnc4c3)ccc12 [Compound 91]
EC50 (Hennes-20 cells; [1]): 2500 nM

CCCCNc1ncnc2cc(N3CCN(c4cc(NCCC(C)C)c5cncnc5c4)C(C)C3)ccc12 (stereo not drawn) [Compound 67]
EC50 (Hennes-20 cells; 72 h): 500 nM

CC(C)CCNc1ncnc2cc(N3CCN(c4ccc5c(NCCc6nccs6)ncnc5c4)CC3)ccc12 [Compound 81]
EC50 (Hennes-20 cells; [1]): 500 nM

CC(C)(C)CNc1ncnc2cc(N3CCN(c4ccc5c(NCCc6ccccc6)ncnc5c4)CC3)ccc12 [Compound 58]
EC50 (Hennes-20 cells; [1]): 12500 nM

CC(C)CCNc1ncnc2cc(N3CCN(c4ccc5c(NCC(C)C)ncnc5c4)CC3)ccc12 [Compound 8]
EC50 (Hennes-20 cells; [1]): < 500 nM

CC(C)CCNc1ncnc2cc(N3CCN(c4ccc5c(NCCN6CCN(C)CC6)ncnc5c4)CC3)ccc12 [Compound 82]
EC50 (Hennes-20 cells; [1]): < 12500 nM

CC(C)CNc1ncnc2cc(N3CCN(c4ccc5c(NCCc6ccncc6)ncnc5c4)CC3)ccc12 [Compound 65]
EC50 (Hennes-20 cells; [1]): 2500 nM

CC(C)CNc1ncnc2cc(N3CCN(c4ccc5c(NCCc6ccccc6)ncnc5c4)CC3)ccc12 [Compound 64]
EC50 (Hennes-20 cells; [1]): 2500 nM

CC(C)(C)CNc1ncnc2cc(N3CCN(c4ccc5c(N6CCC(C)(C)CC6)ncnc5c4)CC3)ccc12 [Compound 74]
EC50 (Hennes-20 cells; [1]): 500 nM

CCCCNc1ncnc2cc(N3CCN(c4ccc5c(NCCC(C)C)ncnc5c4)CC3C)ccc12 (stereo not drawn) [Compound 51]
EC50 (Hennes-20 cells; [1]): 500 nM

CCN(CCN(CC)c1ccc2c(NCCC(C)C)ncnc2c1)c1ccc2c(NCCC(C)C)ncnc2c1 [Compound 88]
EC50 (Hennes-20 cells; [1]): < 12500 nM

CCCCNc1ncnc2cc(N3CCN(c4ccc5c(NCCc6ccncc6)ncnc5c4)CC3)ccc12 [Compound 73]
EC50 (Hennes-20 cells; [1]): 2500 nM

CC(C)CCNc1ncnc2cc(N3CCN(c4ccc5c(NC(C)C)ncnc5c4)CC3)ccc12 [Compound 29]
EC50 (Hennes-20 cells; [1]): < 500 nM

CC(C)CCNc1ncnc2cc(N3CCNCC3)ccc12 [Compound 35]
EC50 (plasmodium): 0.77 µM

CCN(CCN(C)c1ccc2c(NCC(C)(C)C)ncnc2c1)c1ccc2c(NCCC(C)C)ncnc2c1 [Compound 94]
EC50 (Hennes-20 cells; [1]): < 2500 nM

CCCCNc1ncnc2cc(N(C)CCN(CC)c3ccc4c(NCCCC)ncnc4c3)ccc12 [Compound 93]
EC50 (Hennes-20 cells; [1]): < 2500 nM

CC(C)CCNc1ncnc2cc(N3CCN(c4ccc5c(NCCC(C)C)ncnc5c4)C(C)C3C)ccc12 (stereo not drawn) [Compound 55]
EC50 (Hennes-20 cells; [1]): 500 nM

CC(C)(C)CNc1ncnc2cc(N3CCN(c4ccc5c(NCCc6ccncc6)ncnc5c4)CC3)ccc12 [Compound 77]
EC50 (Hennes-20 cells; [1]): < 12500 nM

CC(C)CCN(C)c1ncnc2cc(N3CCN(c4ccc5c(NCCC6CCNCC6)ncnc5c4)CC3)ccc12 [Compound 62]
EC50 (Hennes-20 cells; [1]): > 12500 nM

CC(C)CCNc1ncnc2cc(N3CCN(c4ccc5c(NCC(C)(C)C)ncnc5c4)CC3)ccc12 [Compound 24]
EC50 (Hennes-20 cells; [1]): < 500 nM
